The results in this text go back to patent US20220249447A1, “CF3-, OCF3-, SCF3-, and SF5-Containing Antibacterial Agents” (Purdue Research Foundation, priority 2019, published 2022).

The test system of test [1] is C. difficile NR-13432 (isolate 6). In words: MIC against C. difficile NR-13432 (isolate 6). Type of test: cell-based. On the procedure: (§1) Bacteria were cultured in cation-adjusted Mueller Hinton Broth (for strains in Tables 1-3) or Brain Heart Infusion broth (for Enterococcus faecium) or Tryptic Soy Broth (all other bacteria) in a 96-well plate at 37° C. for at least 20 hours. The MIC was classified as the lowest concentration where no visual growth of bacteria was observed. The minimum bactericidal concentration (MBC) was tested by spotting 4 μL from wells with no growth onto Tryptic Soy Agar (TSA) plates. Plates were incubated at 37° C. for at least 18 hours before recording the MBC.

Test [2] relates to C. difficile NR-13435 (isolate 9). Description: MIC against C. difficile NR-13435 (isolate 9). Type of test: cell-based. On the procedure: as §1
Test [3] relates to C. difficile NR-32883 (P2). In words: MIC against C. difficile NR-32883 (P2). Type of test: cell-based. On the procedure:
as §1

Test [4] has as its system C. difficile NR-32891 (P13). In words: MIC against C. difficile NR-32891 (P13). Type of test: cell-based. On the procedure:
as §1

Test [5] has as its system C. difficile NR-32895 (P19). In words: MIC against C. difficile NR-32895 (P19). Type of test: cell-based. On the procedure: as §1
In test [6] the test system is C. difficile NR-32904 (P30). In words: MIC against C. difficile NR-32904 (P30). Type of test: cell-based. On the procedure: as §1
The subject of the next test is C. difficile ATCC 43255. In words: MIC against C. difficile ATCC 43255. Type of test: cell-based. On the procedure: as §1
In test [7] the test system is C. difficile ATCC BAA 1801. Description: MIC against C. difficile ATCC BAA 1801. Type of test: cell-based. On the procedure: as §1
In the next test the test system is MRSA USA300 cells. Description: Time-kill assay. As to conditions: for Δlog2 CFU/mL: MRSA USA300, 3× MIC or 6× MIC, up to 24 hours. Type of test: cell-based. On the procedure:
The time-kill analysis was performed as previously described^29. […] Aliquots (100 μL) were collected from each treatment after 0, 2, 4, 8, 12, and 24 hours of incubation at 37° C. and subsequently serially diluted in phosphate-buffered saline (PBS). Bacteria were then transferred to TSA plates and incubated at 37° C. for 18-20 hours before viable CFU/mL was determined (see FIG. 2).

A further test concerns S. aureus. In words: MIC, broth microdilution, S. aureus. As to conditions: Staphylococcus aureus. Type of test: cell-based. On the procedure:
as §1
(Dilution methods test growth across graded concentrations, often in twofold steps.)

For a further test, the system named is MRSA ATCC 33592. In words: MIC, broth microdilution, MRSA ATCC 33592. Type of test: cell-based, methicillin-resistant S. aureus. As to conditions: Staphylococcus aureus. On the procedure:
All MRSA isolates were acquired from BEI Resources. The remaining bacteria were purchased from the American Type Culture Collection (ATCC).
as §1

The subject of a further test is E. faecalis ATCC 29212. Description: MIC, broth microdilution, E. faecalis ATCC 29212. The conditions noted are these: Enterococcus faecalis, ATCC29212. Type of test: cell-based. On the procedure:
as §1

A further test concerns VRE ATCC 51575. In words: MIC, broth microdilution, VRE ATCC 51575. As to conditions: Enterococcus. Type of test: cell-based. On the procedure: as §1
Test [8] concerns L. monocytogenes ATCC 19115. Description: MIC, broth microdilution, L. monocytogenes ATCC 19115. Type of test: cell-based. The conditions noted are these: Listeria monocytogenes, ATCC19115. On the procedure: as §1
For test [9], the system named is Neisseria gonorrhea strain 181. In words: MIC against Neisseria gonorrhea strain 181. Type of test: cell-based. On the procedure:
as §1

[10] abbreviates: Clostridioides difficile; read-out: MIC C. difficile NR-13432 (isolate 6).
Setting [11] is: Clostridioides difficile; read-out: MIC C. difficile NR-13435 (isolate 9).
Setting [12] is: Clostridioides difficile; read-out: MIC C. difficile NR-32883 (P2).
Where [13] appears, read: Clostridioides difficile; read-out: MIC C. difficile NR-32891 (P13).
Where [14] appears, read: Clostridioides difficile; read-out: MIC C. difficile NR-32895 (P19).
[15] abbreviates: Clostridioides difficile; read-out: MIC C. difficile NR-32904 (P30).
Where [16] appears, read: Clostridioides difficile, ATCC43255; read-out: MIC C. difficile ATCC 43255.
Where [17] appears, read: Clostridioides difficile, BAA1801; read-out: MIC C. difficile ATCC BAA 1801.

Values after ≈ are worked out from the molar mass of the structure shown. Where two headings read alike, the source gives them in different places.

For `O=C(Nc1nnc(-c2cccs2)o1)c1ccc(S(=O)(=O)C(F)(F)F)cc1` [HSGN-103], the “MIC C. difficile NR-13432 (isolate 6)” value in [1] amounted to 0.5 µg/mL (≈ 1.24 µM). Moreover, the “MIC C. difficile NR-13435 (isolate 9)” value in test [2] is 0.5 µg/mL (≈ 1.24 µM). In addition, the “MIC C. difficile NR-32883 (P2)” value in test [3] amounted to 0.5 µg/mL (≈ 1.24 µM). Further, in [4], the “MIC C. difficile NR-32891 (P13)” value is 0.5 µg/mL (≈ 1.24 µM). In addition, the “MIC C. difficile NR-32895 (P19)” value in test [5] stood at 0.5 µg/mL (≈ 1.24 µM). Further, the “MIC C. difficile NR-32904 (P30)” value in test [6] worked out at 0.5 µg/mL (≈ 1.24 µM). Besides, the “MIC C. difficile ATCC 43255” value in the test with C. difficile ATCC 43255 was found to be 0.5 µg/mL (≈ 1.24 µM). Moreover, in test [7], the “MIC C. difficile ATCC BAA 1801” value worked out at 0.5 µg/mL (≈ 1.24 µM). Besides, in the test with MRSA USA300 cells, the Bactericidal/Bacteriostatic entry is “Bacteriostatic” and the “Δlog2 CFU/mL” value turned out to be 1.04.

`O=C(Nc1nnc(-c2ccc(C(F)(F)F)cc2)o1)c1ccc(SC(F)(F)F)cc1` [HSGN-203, N-(5-(4-(trifluoromethyl)phenyl)-1,3,4-oxadiazol-2-yl)-4-((trifluoromethyl)thio)benzamide]: the MIC against S. aureus was determined as 0.25 µg/mL (≈ 0.577 µM); against MRSA ATCC 33592 it was 0.25 µg/mL (≈ 0.577 µM); in the test with E. faecalis ATCC 29212, 1 µg/mL (≈ 2.31 µM); with VRE ATCC 51575 it was 0.5 µg/mL (≈ 1.15 µM); in [8], 0.5 µg/mL (≈ 1.15 µM); in test [1] (setting [10]) it was 0.125 µg/mL (≈ 0.288 µM). Besides, the MIC came to 0.06 µg/mL (≈ 0.138 µM) in [2] (setting [11]); 0.06 µg/mL (≈ 0.138 µM) in [3] (setting [12]); 0.125 µg/mL (≈ 0.288 µM) in test [4] (setting [13]); 0.06 µg/mL (≈ 0.138 µM) in test [5] (setting [14]); 0.125 µg/mL (≈ 0.288 µM) in test [6] (setting [15]); 0.25 µg/mL (≈ 0.577 µM) in the test on C. difficile ATCC 43255 (setting [16]). Besides, the MIC in test [7] (setting [17]) amounted to 0.125 µg/mL (≈ 0.288 µM); in test [9] it was 0.5 µg/mL (≈ 1.15 µM).

For `O=C(Nc1nnc(-c2cccc(Br)c2)o1)c1ccc(SC(F)(F)F)cc1` [HSGN-217, N-(5-(3-bromophenyl)-1,3,4-oxadiazol-2-yl)-4-((trifluoromethyl)thio)benzamide], the MIC was 0.5 µg/mL (≈ 1.13 µM) against S. aureus; 0.5 µg/mL (≈ 1.13 µM) with MRSA ATCC 33592; 0.06 µg/mL (≈ 0.135 µM) in test [1] (setting [10]); 0.06 µg/mL (≈ 0.135 µM) in [2] (setting [11]); 0.06 µg/mL (≈ 0.135 µM) in test [3] (setting [12]); 0.125 µg/mL (≈ 0.281 µM) in [4] (setting [13]). Besides, the MIC in test [5] (setting [14]) was 0.125 µg/mL (≈ 0.281 µM); in [6] (setting [15]) it was 0.125 µg/mL (≈ 0.281 µM); with C. difficile ATCC 43255 (setting [16]) it was 0.06 µg/mL (≈ 0.135 µM); in test [7] (setting [17]) it was 0.06 µg/mL (≈ 0.135 µM); in test [9], 0.25 µg/mL (≈ 0.563 µM).

Consider `O=C(Nc1nnc(-c2ccc(F)cc2F)o1)c1ccc(SC(F)(F)F)cc1` [HSGN-219, N-(5-(2,4-difluorophenyl)-1,3,4-oxadiazol-2-yl)-4-((trifluoromethyl)thio)benzamide], for which the MIC against S. aureus stood at 0.5 µg/mL (≈ 1.25 µM); in the test on MRSA ATCC 33592, 0.5 µg/mL (≈ 1.25 µM); in test [1] (setting [10]), 0.03 µg/mL (≈ 0.0748 µM); in test [2] (setting [11]), 0.007 µg/mL (≈ 0.0174 µM); in [3] (setting [12]) it was 0.003 µg/mL (≈ 0.00748 µM); in test [4] (setting [13]) it was 0.125 µg/mL (≈ 0.311 µM). Further, the MIC in test [5] (setting [14]) came to 0.06 µg/mL (≈ 0.15 µM); in [6] (setting [15]), 0.06 µg/mL (≈ 0.15 µM); with C. difficile ATCC 43255 (setting [16]) it was 0.06 µg/mL (≈ 0.15 µM); in test [7] (setting [17]), 0.015 µg/mL (≈ 0.0374 µM); in test [9], 2 µg/mL (≈ 4.98 µM).

For `CC(=O)NC[C@H]1CN(c2ccc(N3CCOCC3)c(F)c2)C(=O)O1` [Linezolid, reference compound], in the test on MRSA USA300 cells, the Bactericidal/Bacteriostatic result is “Bacteriostatic” and the “Δlog2 CFU/mL” value was found to be 1.7.

`CN[C@H](CC(C)C)C(=O)N[C@H]1C(=O)N[C@@H](CC(N)=O)C(=O)N[C@H]2C(=O)N[C@H]3C(=O)N[C@H](C(=O)N[C@H](C(=O)O)c4cc(O)cc(O)c4-c4cc3ccc4O)[C@H](O)c3ccc(c(Cl)c3)Oc3cc2cc(c3O[C@@H]2O[C@H](CO)[C@@H](O)[C@H](O)[C@H]2O[C@H]2C[C@](C)(N)[C@H](O)[C@H](C)O2)Oc2ccc(cc2Cl)[C@H]1O` [Vancomycin, reference compound]: the MIC in [1] (Clostridioides difficile, read-out: MIC C. difficile NR-13432 (isolate 6)) worked out at 0.25 µg/mL (≈ 0.173 µM); in test [2] (Clostridioides difficile, read-out: MIC C. difficile NR-13435 (isolate 9)) it was 1 µg/mL (≈ 0.69 µM); in [3] (Clostridioides difficile, read-out: MIC C. difficile NR-32883 (P2)), 0.5 µg/mL (≈ 0.345 µM); in test [4] (Clostridioides difficile, read-out: MIC C. difficile NR-32891 (P13)) it was 0.5 µg/mL (≈ 0.345 µM); in test [5] (Clostridioides difficile, read-out: MIC C. difficile NR-32895 (P19)), 1 µg/mL (≈ 0.69 µM); in test [6] (Clostridioides difficile, read-out: MIC C. difficile NR-32904 (P30)) it was 1 µg/mL (≈ 0.69 µM). In addition, the MIC in the test on C. difficile ATCC 43255 (Clostridioides difficile, ATCC43255, read-out: MIC C. difficile ATCC 43255) stood at 1 µg/mL (≈ 0.69 µM); in test [7] (Clostridioides difficile, BAA1801, read-out: MIC C. difficile ATCC BAA 1801), 1 µg/mL (≈ 0.69 µM). Also, the Bactericidal/Bacteriostatic result in the test on MRSA USA300 cells is reported as “Bactericidal”.

The term MIC denotes the lowest concentration that inhibits growth of the organism.
